Measured values taken from patent US20110160444A1, “Cloning Transcription Factor Gene OsWOX20 That Regulates The Growth and Development of Monocotyledon's Root and Uses Thereof” (Huazhong Agricultural University, priority 2007, published 2011).

Columns and labels:
OsWOX20 gene expression = experiment: Induced expression of rice endogenous gene OsWOX20 by realtime-PCR; assay type: in vivo, rice variety Zhonghua No. 11; conditions: 10 μM, roots of seedlings soaked; for Time after which level of expression of OsWOX20 began to rise / Time at which level of expression of OsWOX20 reached peak: exogenous auxin; for Induction of expression of OsWOX20 gene: samples 0-24 h, normalized to actin1
Procedure: The rice variety “Zhonghua No. 11” was used as the research material and treated with auxin, cytokinin, an auxin inhibitor and light at day ten after germination. Auxin treatment was done by soaking the roots of the seedlings with 10 μM IAA (indoleacetic acid) and 10 μM NAA (naphthaleneacetic acid) and taking samples at 0 h, 0.5 h, 1 h, 2 h, 3 h, 4 h, 6 h, 9 h, 12 h and 24 h. Cytokinin treatment was done by soaking the roots of the seedlings with 10 μM 6-BA (6-benzylaminopurine) and taking samples at 0 h, 0.5 h, 1 h, 2 h, 3 h, 4 h, 6 h, 9 h, 12 h and 24 h. Auxin inhibitor NPA (N-1-naphthylphthalamic acid) treatment was performed by soaking the roots of the seedlings in 1 μM NPA solution and taking samples at 0 h, 0.5 h, 1 h, 2 h, 3 h, 4 h, 6 h, 9 h, 12 h and 24 h. Light treatment was carried out by allowing the seeds of rice variety “Zhonghua No. 11” to germinate in dark, then placing the seedlings which have germinated for 5 days in dark under light for growth, and sampling at 1 h, 2 h, 4 h, 8 h and 12 h after light illumination. Total RNAs were extracted from whole plants (Trizol reagent, purchased from Invitrogen) and reverse transcribed according to the method described in Example 4. The reverse transcription product was subjected to quantitative PCR in a reaction system of 25 μl containing 1.5 μl of reverse transcription product, 0.25 μM of each of left and right primers and 12.5 μl of SYBR Green mixture (Applied Biosystems). The PCR reaction was performed on a 7500 real-time quantitative PCR amplifier (Applied Biosystems) according to the protocol described in the manufacturer's manual provided by Applied Biosystems, with rice actin1 gene as the internal reference of the reaction. All primers were annealed at 58° C. and reaction was performed for 40 cycles. Each sample was assayed in triplicate and normalized to the level of expression of actin1. […] The OsWOX20 primers used in the quantitative PCR were: […]

wild-type plants = experiment: Effect of auxin inhibitor (NPA) on root length and numbers of crown and lateral roots, wild-type plants; assay type: in vivo, rice; conditions: treated with 10^-6 mol/L NPA
Description: (§1) 2) In order to compare the root system of transgenic OWOX20 lines with increased number of roots to that of wild-type lines, we collected seeds from five transgenic OWOX20 lines after the seeds were completely ripe and allowed the seeds to germinate to investigate growth of the roots.

[1] = system: transgenic plants (OsWOX20 overexpression lines 1-3); experiment: Effect of auxin inhibitor (NPA) on root length and numbers of crown and lateral roots, OsWOX20 transgenic plants; assay type: in vivo, rice; conditions: for Length of roots / Number of crown roots / Number of lateral roots: treated with 10^-6 mol/L NPA
Description: as §1

O=C(O)Cc1cccc2ccccc12 [NAA, naphthaleneacetic acid]
Time after which level of expression of OsWOX20 began to rise (OsWOX20 gene expression): 30 min | Time at which level of expression of OsWOX20 reached peak (OsWOX20 gene expression): about 1 hour

c1ccc(CNc2ncnc3nc[nH]c23)cc1 [6-BA, 6-benzylaminopurine]
Induction of expression of OsWOX20 gene (OsWOX20 gene expression): can be induced

O=C(O)Cc1c[nH]c2ccccc12 [IAA, indoleacetic acid]
Induction of expression of OsWOX20 gene (OsWOX20 gene expression): can be induced | Time after which level of expression of OsWOX20 began to rise (OsWOX20 gene expression): 30 min | Time at which level of expression of OsWOX20 reached peak (OsWOX20 gene expression): about 1 hour

O=C(O)c1ccccc1C(=O)Nc1cccc2ccccc12 [NPA, N-1-naphthylphthalamic acid]
Length of roots (wild-type plants): 4.8 ± 0.5 cm | Number of crown roots (wild-type plants): 3 ± 0 | Number of lateral roots (wild-type plants): 6.4 ± 2.8 | Growth of the roots ([1]; seeds from lines having increased number of roots, 10^-6 mol/L NPA): markedly inhibited | Length of roots ([1]; transgenic Line 1+): 1.1 ± 0.3 cm | Number of crown roots ([1]; transgenic Line 1+): 3.0 ± 2.7 | Number of lateral roots ([1]; transgenic Line 1+): 0 | Length of roots ([1]; transgenic Line 2+): 1.3 ± 0.6 cm | Number of crown roots ([1]; transgenic Line 2+): 1.7 ± 0.6 | Number of lateral roots ([1]; transgenic Line 2+): 0 | Length of roots ([1]; transgenic Line 3+): 1.0 ± 0.6 cm | Number of crown roots ([1]; transgenic Line 3+): 3.0 ± 1.0 | Number of lateral roots ([1]; transgenic Line 3+): 0 | Numbers and length of crown roots and lateral roots versus untreated plant lines ([1]; transgenic plant lines in the presence of NPA): significantly decreased
